Results published in ChEMBL document CHEMBL4507279, “Data for DCP probe BI-9627” (2021).

Assays:
[1] = tested on: Epidermal growth factor receptor (Homo sapiens), P00533 [UNDEFINED MUTATION]; settings: Compound concentration 1000.0 nM
[2] = target: Fibroblast growth factor receptor 3 (Homo sapiens) (UniProt P22607); settings: Compound concentration 1000.0 nM
[3] = target: Mitogen-activated protein kinase 6 (Homo sapiens) (UniProt Q16659); settings: Compound concentration 1000.0 nM
[4] = target: Insulin receptor (Homo sapiens) (UniProt P06213); settings: Compound concentration 1000.0 nM
[5] = target: Protein-tyrosine kinase 2-beta (Homo sapiens) (UniProt Q14289); settings: Compound concentration 1000.0 nM
[6] = target: Sigma intracellular receptor 2 (Homo sapiens) (UniProt Q5BJF2); settings: Compound concentration 10.0 uM
[7] = target: Cyclin-G-associated kinase (Homo sapiens) (UniProt O14976); settings: Compound concentration 1000.0 nM
[8] = target: Serine/threonine-protein kinase OSR1 (Homo sapiens) (UniProt O95747); settings: Compound concentration 1000.0 nM
[9] = target: Mitogen-activated protein kinase kinase kinase 11 (Homo sapiens) (UniProt Q16584); settings: Compound concentration 1000.0 nM
[10] = target: Tyrosine-protein kinase Blk (Homo sapiens) (UniProt P51451); settings: Compound concentration 1000.0 nM
[11] = target: 5-hydroxytryptamine receptor 2C (Homo sapiens) (UniProt P28335); settings: Compound concentration 10.0 uM
[12] = target: Serine/threonine-protein kinase RIO2 (Homo sapiens) (UniProt Q9BVS4); settings: Compound concentration 1000.0 nM
[13] = target: Tyrosine-protein kinase Yes (Homo sapiens) (UniProt P07947); settings: Compound concentration 1000.0 nM
[14] = tested on: Phosphatidylinositol 4,5-bisphosphate 3-kinase catalytic subunit alpha isoform (Homo sapiens), P42336 [C420R]; settings: Compound concentration 1000.0 nM
[15] = target: Dual specificity mitogen-activated protein kinase kinase 3 (Homo sapiens) (UniProt P46734); settings: Compound concentration 1000.0 nM
[16] = target: Serine/threonine-protein kinase 36 (Homo sapiens) (UniProt Q9NRP7); settings: Compound concentration 1000.0 nM
[17] = target: Cyclin-dependent kinase-like 3 (Homo sapiens) (UniProt Q8IVW4); settings: Compound concentration 1000.0 nM
[18] = target: TGF-beta receptor type-1 (Homo sapiens) (UniProt P36897); settings: Compound concentration 1000.0 nM
[19] = target: Mitogen-activated protein kinase 8 (Homo sapiens) (UniProt P45983); settings: Compound concentration 1000.0 nM
[20] = target: Mu-type opioid receptor (Homo sapiens) (UniProt P35372); settings: Compound concentration 10.0 uM
[21] = target: Cyclin-dependent kinase 15 (Homo sapiens) (UniProt Q96Q40); settings: Compound concentration 1000.0 nM
[22] = target: Mitogen-activated protein kinase kinase kinase 1 (Homo sapiens) (UniProt Q13233); settings: Compound concentration 1000.0 nM
[23] = target: Serine/threonine-protein kinase WNK1 (Homo sapiens) (UniProt Q9H4A3); settings: Compound concentration 1000.0 nM
[24] = tested on: Proto-oncogene tyrosine-protein kinase receptor Ret (Homo sapiens), P07949 [V804L]; settings: Compound concentration 1000.0 nM
[25] = target: Mitogen-activated protein kinase kinase kinase kinase 5 (Homo sapiens) (UniProt Q9Y4K4); settings: Compound concentration 1000.0 nM
[26] = target: Serine/threonine-protein kinase TAO1 (Homo sapiens) (UniProt Q7L7X3); settings: Compound concentration 1000.0 nM
[27] = target: SRSF protein kinase 3 (Homo sapiens) (UniProt Q9UPE1); settings: Compound concentration 1000.0 nM
[28] = target: Tyrosine-protein kinase Fer (Homo sapiens) (UniProt P16591); settings: Compound concentration 1000.0 nM
[29] = target: Epidermal growth factor receptor (Homo sapiens) (UniProt P00533); settings: Compound concentration 1000.0 nM
[30] = target: cGMP-dependent protein kinase 1 (Homo sapiens) (UniProt Q13976); settings: Compound concentration 1000.0 nM
[31] = target: Tyrosine-protein kinase Lck (Homo sapiens) (UniProt P06239); settings: Compound concentration 1000.0 nM
[32] = target: Tyrosine-protein kinase Fgr (Homo sapiens) (UniProt P09769); settings: Compound concentration 1000.0 nM
[33] = target: Tyrosine-protein kinase Mer (Homo sapiens) (UniProt Q12866); settings: Compound concentration 1000.0 nM
[34] = target: Ribosomal protein S6 kinase alpha-5 (Homo sapiens) (UniProt O75582); settings: Compound concentration 1000.0 nM
[35] = target: SNF-related serine/threonine-protein kinase (Homo sapiens) (UniProt Q9NRH2); settings: Compound concentration 1000.0 nM
[36] = target: Cyclin-dependent kinase 11B (Homo sapiens) (UniProt P21127); settings: Compound concentration 1000.0 nM
[37] = target: Cyclin-dependent kinase 4 (Homo sapiens) (UniProt P11802); settings: Compound concentration 1000.0 nM
[38] = tested on: Receptor-type tyrosine-protein kinase FLT3 (Homo sapiens), P36888 [D835Y]; settings: Compound concentration 1000.0 nM
[39] = target: Cyclin-dependent kinase 2 homolog (Plasmodium falciparum (isolate 3D7)) (UniProt P61075); settings: Compound concentration 1000.0 nM
[40] = target: Activin receptor type-2B (Homo sapiens) (UniProt Q13705); settings: Compound concentration 1000.0 nM
[41] = target: Dual specificity protein kinase CLK4 (Homo sapiens) (UniProt Q9HAZ1); settings: Compound concentration 1000.0 nM
[42] = target: Serine/threonine-protein kinase MRCK alpha (Homo sapiens) (UniProt Q5VT25); settings: Compound concentration 1000.0 nM
[43] = target: Serine/threonine-protein kinase PAK 4 (Homo sapiens) (UniProt O96013); settings: Compound concentration 1000.0 nM
[44] = target: Casein kinase I isoform gamma-2 (Homo sapiens) (UniProt P78368); settings: Compound concentration 1000.0 nM
[45] = target: Activin receptor type-1B (Homo sapiens) (UniProt P36896); settings: Compound concentration 1000.0 nM
[46] = target: Serine/threonine-protein kinase MRCK gamma (Homo sapiens) (UniProt Q6DT37); settings: Compound concentration 1000.0 nM

Epidermal growth factor receptor (Homo sapiens), P00533 [UNDEFINED MUTATION], sequence (P00533 whole entry, looked up, change not shown): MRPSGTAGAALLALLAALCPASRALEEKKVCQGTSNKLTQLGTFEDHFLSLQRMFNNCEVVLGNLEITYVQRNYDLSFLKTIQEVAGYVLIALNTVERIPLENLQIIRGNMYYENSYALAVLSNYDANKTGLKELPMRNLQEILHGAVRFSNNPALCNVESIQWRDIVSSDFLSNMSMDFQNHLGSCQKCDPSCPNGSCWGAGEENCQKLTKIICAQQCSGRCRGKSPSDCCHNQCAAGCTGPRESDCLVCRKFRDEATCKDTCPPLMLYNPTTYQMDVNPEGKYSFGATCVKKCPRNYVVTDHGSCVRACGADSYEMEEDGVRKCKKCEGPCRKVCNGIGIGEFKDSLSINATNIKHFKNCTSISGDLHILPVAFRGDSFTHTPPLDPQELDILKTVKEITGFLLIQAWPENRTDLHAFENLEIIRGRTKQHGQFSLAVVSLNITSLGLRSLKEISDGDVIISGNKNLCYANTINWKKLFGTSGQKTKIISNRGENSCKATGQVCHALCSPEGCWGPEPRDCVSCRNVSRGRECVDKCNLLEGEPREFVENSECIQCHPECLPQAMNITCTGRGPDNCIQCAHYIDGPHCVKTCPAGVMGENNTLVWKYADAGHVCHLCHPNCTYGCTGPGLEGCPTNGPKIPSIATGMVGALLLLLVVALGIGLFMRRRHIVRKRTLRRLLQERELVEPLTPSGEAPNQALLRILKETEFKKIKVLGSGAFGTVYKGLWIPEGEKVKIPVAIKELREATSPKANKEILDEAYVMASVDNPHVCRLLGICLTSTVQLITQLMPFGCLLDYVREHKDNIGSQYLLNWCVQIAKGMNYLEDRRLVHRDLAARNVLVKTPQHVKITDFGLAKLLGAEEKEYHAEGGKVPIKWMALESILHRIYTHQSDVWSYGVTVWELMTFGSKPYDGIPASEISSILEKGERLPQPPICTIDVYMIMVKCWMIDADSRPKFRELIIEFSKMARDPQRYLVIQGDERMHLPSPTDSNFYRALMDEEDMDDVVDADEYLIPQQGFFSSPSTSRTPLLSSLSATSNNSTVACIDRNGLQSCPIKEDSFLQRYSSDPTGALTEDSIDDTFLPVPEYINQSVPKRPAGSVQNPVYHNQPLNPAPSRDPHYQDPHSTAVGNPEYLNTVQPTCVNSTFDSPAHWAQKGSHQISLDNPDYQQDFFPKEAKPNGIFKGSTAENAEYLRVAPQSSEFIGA
Epidermal growth factor receptor (Homo sapiens), sequence (P00533 whole entry): as the sequence (P00533 whole entry, looked up, change not shown) above
Tyrosine-protein kinase Fgr (Homo sapiens), sequence (P09769 2-529 limits assumed): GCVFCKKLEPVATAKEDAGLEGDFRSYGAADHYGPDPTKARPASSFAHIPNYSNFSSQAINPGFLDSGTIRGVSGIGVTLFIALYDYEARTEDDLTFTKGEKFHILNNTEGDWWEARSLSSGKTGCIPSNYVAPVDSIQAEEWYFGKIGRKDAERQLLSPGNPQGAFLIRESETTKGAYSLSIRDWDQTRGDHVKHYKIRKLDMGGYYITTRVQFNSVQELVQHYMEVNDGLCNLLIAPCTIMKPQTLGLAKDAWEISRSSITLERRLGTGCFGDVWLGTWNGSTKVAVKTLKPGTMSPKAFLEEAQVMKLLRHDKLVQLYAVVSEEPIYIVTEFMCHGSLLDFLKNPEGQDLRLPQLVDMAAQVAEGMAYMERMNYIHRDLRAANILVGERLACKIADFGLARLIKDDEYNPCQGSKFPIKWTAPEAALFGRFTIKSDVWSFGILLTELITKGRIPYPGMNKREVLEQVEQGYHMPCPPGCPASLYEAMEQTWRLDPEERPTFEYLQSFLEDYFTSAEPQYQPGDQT
Sigma intracellular receptor 2 (Homo sapiens), sequence (Q5BJF2 whole entry): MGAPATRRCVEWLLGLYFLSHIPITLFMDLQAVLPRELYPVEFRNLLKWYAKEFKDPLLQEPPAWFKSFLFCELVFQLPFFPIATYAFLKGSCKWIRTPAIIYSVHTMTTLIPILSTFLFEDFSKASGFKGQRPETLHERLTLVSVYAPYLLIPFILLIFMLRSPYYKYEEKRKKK
Tyrosine-protein kinase Blk (Homo sapiens), sequence (P51451 2-505 limits assumed): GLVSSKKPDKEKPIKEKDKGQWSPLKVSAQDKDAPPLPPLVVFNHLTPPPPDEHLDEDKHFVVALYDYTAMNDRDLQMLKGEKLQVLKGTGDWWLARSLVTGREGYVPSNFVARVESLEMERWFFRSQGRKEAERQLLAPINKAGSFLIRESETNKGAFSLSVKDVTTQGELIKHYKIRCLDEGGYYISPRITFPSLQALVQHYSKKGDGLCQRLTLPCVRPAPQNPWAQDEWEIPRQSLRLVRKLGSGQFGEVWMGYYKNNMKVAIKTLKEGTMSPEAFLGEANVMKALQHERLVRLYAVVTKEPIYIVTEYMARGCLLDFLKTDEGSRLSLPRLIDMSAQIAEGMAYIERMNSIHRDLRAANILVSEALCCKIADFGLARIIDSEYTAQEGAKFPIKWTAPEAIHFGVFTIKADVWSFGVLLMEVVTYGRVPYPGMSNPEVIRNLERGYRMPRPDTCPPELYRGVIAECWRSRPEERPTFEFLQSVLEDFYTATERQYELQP
Phosphatidylinositol 4,5-bisphosphate 3-kinase catalytic subunit alpha isoform (Homo sapiens), P42336 [C420R], sequence (P42336 whole entry C420R, canonical isoform): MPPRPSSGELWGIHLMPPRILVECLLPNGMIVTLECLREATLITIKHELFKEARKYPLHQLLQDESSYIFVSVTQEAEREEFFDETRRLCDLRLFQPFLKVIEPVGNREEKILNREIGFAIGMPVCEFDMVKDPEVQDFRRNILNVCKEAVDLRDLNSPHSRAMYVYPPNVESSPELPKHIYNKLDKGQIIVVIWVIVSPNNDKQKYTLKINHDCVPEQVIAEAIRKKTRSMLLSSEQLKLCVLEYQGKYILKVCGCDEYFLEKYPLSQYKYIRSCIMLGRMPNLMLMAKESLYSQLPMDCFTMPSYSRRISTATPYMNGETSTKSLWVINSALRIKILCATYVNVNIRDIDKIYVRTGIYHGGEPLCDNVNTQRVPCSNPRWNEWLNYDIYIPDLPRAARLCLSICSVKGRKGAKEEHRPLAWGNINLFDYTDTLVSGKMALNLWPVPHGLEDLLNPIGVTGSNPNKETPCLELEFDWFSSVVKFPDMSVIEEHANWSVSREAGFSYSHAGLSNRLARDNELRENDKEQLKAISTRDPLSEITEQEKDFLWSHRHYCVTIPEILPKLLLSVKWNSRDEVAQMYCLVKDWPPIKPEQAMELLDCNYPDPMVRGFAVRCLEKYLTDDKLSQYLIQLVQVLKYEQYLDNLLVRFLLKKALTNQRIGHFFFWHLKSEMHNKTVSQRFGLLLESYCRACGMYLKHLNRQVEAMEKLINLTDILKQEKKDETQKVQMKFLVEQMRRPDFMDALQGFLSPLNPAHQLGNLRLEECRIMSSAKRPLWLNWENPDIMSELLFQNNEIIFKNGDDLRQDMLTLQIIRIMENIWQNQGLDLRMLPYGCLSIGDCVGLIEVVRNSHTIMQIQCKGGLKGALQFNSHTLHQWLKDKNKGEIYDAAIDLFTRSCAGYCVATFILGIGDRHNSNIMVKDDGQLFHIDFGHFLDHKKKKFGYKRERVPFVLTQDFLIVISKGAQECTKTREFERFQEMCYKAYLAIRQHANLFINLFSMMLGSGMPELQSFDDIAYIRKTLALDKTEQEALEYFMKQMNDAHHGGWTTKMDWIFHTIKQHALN
Cyclin-dependent kinase 2 homolog (Plasmodium falciparum (isolate 3D7)), sequence (P61075 whole entry): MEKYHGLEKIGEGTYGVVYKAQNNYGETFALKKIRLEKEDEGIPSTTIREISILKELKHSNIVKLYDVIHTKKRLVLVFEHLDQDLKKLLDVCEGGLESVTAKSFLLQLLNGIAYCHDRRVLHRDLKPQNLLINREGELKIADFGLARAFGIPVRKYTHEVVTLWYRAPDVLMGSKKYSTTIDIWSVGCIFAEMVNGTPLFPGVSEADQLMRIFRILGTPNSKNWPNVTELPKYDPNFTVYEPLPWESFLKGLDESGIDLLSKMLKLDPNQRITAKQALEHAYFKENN

CC(=O)N1CCC(c2ccc(C(=O)NC3=NCCN3)cc2C(F)(F)F)CC1 [BI 0054]
inactive: residual activity [1] 100% | residual activity [2] 100% | residual activity [3] 100% | residual activity [4] 100% | residual activity [5] 100% | inhibition [6] -0.12% | residual activity [7] 97% | residual activity [8] 100% | residual activity [9] 100% | residual activity [10] 94% | inhibition [11] -2.86% | residual activity [12] 93% | residual activity [13] 100% | residual activity [14] 93% | residual activity [15] 87% | residual activity [16] 83% | residual activity [17] 100% | residual activity [18] 100% | residual activity [19] 84% | inhibition [20] -2.53% | residual activity [21] 100% | residual activity [22] 86% | residual activity [23] 99% | residual activity [24] 100% | residual activity [25] 100% | residual activity [26] 100% | residual activity [27] 100% | residual activity [28] 93% | residual activity [29] 100% | residual activity [30] 100% | residual activity [31] 100% | residual activity [32] 100% | residual activity [33] 100% | residual activity [34] 100% | residual activity [35] 98% | residual activity [36] 92% | residual activity [37] 100% | residual activity [38] 98% | residual activity [39] 100% | residual activity [40] 100% | residual activity [41] 100% | residual activity [42] 100% | residual activity [43] 100% | residual activity [44] 100% | residual activity [45] 100% | residual activity [46] 93%

CC(=O)N1CCC(c2ccc(C(=O)NC(=N)N)cc2C(F)(F)F)CC1 [BI 9627]
inactive: residual activity [1] 100% | residual activity [2] 100% | residual activity [3] 100% | residual activity [4] 100% | residual activity [5] 100% | inhibition [6] -6.34% | residual activity [7] 100% | residual activity [8] 100% | residual activity [9] 100% | residual activity [10] 100% | inhibition [11] 2.59% | residual activity [12] 100% | residual activity [13] 98% | residual activity [14] 100% | residual activity [15] 100% | residual activity [16] 100% | residual activity [17] 100% | residual activity [18] 100% | residual activity [19] 73% | inhibition [20] 8.98% | residual activity [21] 100% | residual activity [22] 96% | residual activity [23] 100% | residual activity [24] 97% | residual activity [25] 100% | residual activity [26] 100% | residual activity [27] 100% | residual activity [28] 96% | residual activity [29] 100% | residual activity [30] 100% | residual activity [31] 100% | residual activity [32] 91% | residual activity [33] 81% | residual activity [34] 100% | residual activity [35] 100% | residual activity [36] 100% | residual activity [37] 100% | residual activity [38] 100% | residual activity [39] 100% | residual activity [40] 100% | residual activity [41] 100% | residual activity [42] 100% | residual activity [43] 100% | residual activity [44] 100% | residual activity [45] 93% | residual activity [46] 92%
